Results reported in patent publication US20230144344A1, “COMPOSITION FOR PREVENTING OR TREATING CARDIOVASCULAR AND METABOLIC DISEASES COMPRISING ELAEOCARPUS PETIOLATUS” (SEOUL NATIONAL UNIVERSITY HOSPITAL, priority 2020, published 2023).

Assays:
Resistin-CAP1 binding = target: T1, Resistin-CAP1 binding (Homo sapiens, UniProt Q9HD89); assay: Resistin-CAP1 competitive binding assay (enzyme immunological method); details: for Resistin-CAP1 binding inhibitory effect: in words, FIG. 5a-5c; for binding inhibitory activity of Resistin-CAP1: 25 μM, 50 μM, and 100 μM, FIG. 8
T1 sequence (Q9HD89 19-108): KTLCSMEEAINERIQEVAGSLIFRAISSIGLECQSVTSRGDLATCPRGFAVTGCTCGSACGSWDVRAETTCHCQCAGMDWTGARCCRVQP
Protocol: Recombinant CAP-1 protein was attached to a plate for immunoassay overnight, washed, and then the attachment of other proteins was blocked with 1% BSA/PBS solution, and the recombinant Resistin to which mouse Fc was attached and the sample were pre-reacted for 1 hour. Then, the solution was dispensed on the plate and reacted at room temperature for 2 hours. After washing the plate, HRP to be attached to the mFc of Resistin bound to CAP-1 was dispensed and reacted for 1 hour. After washing, the substrate was dispensed and reacted for 30 minutes by HRP, and absorbance was measured at a wavelength of 450 nm with a microplate meter.

[1] = test system: Resistin-induced TNF-α production in THP-1 cells; assay: TNF-alpha assay: Resistin-induced TNF-α production in THP-1 cells (ELISA); assay type: cell-based, human; details: for inhibitory effect on TNF-α induced by Resistin: in words, summary of Table 3b
Protocol: TNF-alpha assay was performed to examine the anti-inflammatory effect induced by the Resistin-CAP1 binding on the Elaeocarpus petiolatus extracts, fractions, and single compounds isolated therefrom.
After culturing for 1 hour, 2 μg/mL of human recombinant Resistin (Biovision) was treated and further cultured for 6 hours. Thereafter, the supernatant was recovered and stored at −70° C.
For TNF-alpha assay, Human TNF-alpha ELISA kit (BD bioscience) was used and analyzed according to the manufacturer's protocol.

THP-1 cells = assay: Cell viability of THP-1 cells (CytoX)
Protocol: After 1 hour, each sample was treated at a concentration of 5 μM. After culturing for 24 hours, 5 μL of CytoX (LPS solution, Korea) solution was added into each well and incubated for another 4 hours. Then, absorbance was measured at 450 nm. The cell viability was calculated according to the following equation with the value of the negative control treated with DMSO as 100%.

[2] = 10 μg/mL, RETN +, THP-1 cells, isolated compounds

Compound | Resistin-CAP1 binding inhibitory effect (Resistin-CAP1 binding) | inhibition at 5 µg/mL ([1]; Homo sapiens, 5 μg/mL, RETN +, THP-1 cells, read-out: TNF-α Inhibition Rate (%, Average ± Standard Deviation)) | inhibition at 10 µg/mL ([1]; Homo sapiens, 10 μg/mL, RETN +, THP-1 cells, isolated compounds, read-out: TNF-α Inhibition Rate (%, Average ± Standard Deviation)) | inhibition at 20 µg/mL ([1]; Homo sapiens, 20 μg/mL, RETN +, THP-1 cells, read-out: TNF-α Inhibition Rate (%, Average ± Standard Deviation)) | inhibitory effect on TNF-α induced by Resistin [1] | Viability (%, Average ± Standard Deviation) (THP-1 cells; 2.5 μg/mL) | Viability (%, Average ± Standard Deviation) (THP-1 cells; 5 μg/mL) | Viability (%, Average ± Standard Deviation) (THP-1 cells; 10 μg/mL, isolated compounds) | Viability (%, Average ± Standard Deviation) (THP-1 cells; 20 μg/mL) | binding inhibitory activity of Resistin-CAP1 (Resistin-CAP1 binding) | TNF-α Inhibition Rate (%, Average ± Standard Deviation) ([1]; 5 μg/mL, RETN +, THP-1 cells) | TNF-α Inhibition Rate (%, Average ± Standard Deviation) [1, 2] | TNF-α Inhibition Rate (%, Average ± Standard Deviation) ([1]; 20 μg/mL, RETN +, THP-1 cells)
O=c1oc2c(O)c(O)cc3c(=O)oc4c(O)c(O)cc1c4c23 [Ellagic acid (6D), Ellagic acid] | concentration-dependent inhibitory effect | 16.4 ± 5.12% | 27.4 ± 4.5% | -18.6 ± 3.16% | exhibited an inhibitory effect on TNF-α production | 96.89 ± 0.05% | 98.73 ± 0.91% | 94.38 ± 0.13% | 89.21 ± 1.01% | – | – | – | –
C[C@H]1O[C@@H](Oc2c(-c3cc(O)c(O)c(O)c3)oc3cc(O)cc(O)c3c2=O)[C@@H](O)[C@@H](O)[C@@H]1O [Myricetin-3-O-α-L-rhamnoside (5E2), Myricetin-3-O-α-L-rhamnoside] | concentration-dependent inhibitory effect | – | – | – | exhibited an inhibitory effect on TNF-α production | 99.54 ± 3.22% | 106.14 ± 0.93% | 98.85 ± 1.07% | 100.12 ± 0.64% | inhibited the binding of Resistin-CAP1 in a concentration-dependent manner | 28.57 ± 6.79% | 24.13 ± 3.31% | 33.64 ± 9.21%
Isorhamnetin-3-O-β-D-hexoside [Isorhamnetin-3-O-β-D-hexoside (6E)] | concentration-dependent inhibitory effect | – | – | – | exhibited an inhibitory effect on TNF-α production | 101.71 ± 4.56% | 101.88 ± 0.10% | 95.02 ± 0.20% | 94.72 ± 0.28% | – | 43.06 ± 10.44% | 51.29 ± 5.76% | 59.53 ± 9.02%
O=c1c(O)c(-c2cc(O)c(O)c(O)c2)oc2cc(O)cc(O)c12 [myricetin, Myricetin, reference compound] | – | – | – | – | – | – | – | – | – | no inhibitory activity | – | – | –
